Reference: US20210251955A1, “PREVENTION OF AGE RELATED CLONAL HEMATOPOIESIS AND DISEASES ASSOCIATED THEREWITH” (Yeda Research and Development Co. Ltd., priority 2018, published 2021)
“Also recorded” adds a separate entry of the source.

How the values were obtained:
[1] = tested on: panel of 18 genetically diverse AML cell lines; assay: Cell viability upon sulfonamide exposure across a panel of 18 AML cell lines; type: cell-based
Text: (§1) The effects of indisulam and the sulfonamide analogue, E7820, were first examined across a panel of 18 genetically diverse AML cell lines.

[2] = tested on: isogenic K562, TF-1 and NALM-6 cells expressing mutations in SF3B1, SRSF2, U2AF1; assay: Growth inhibition of isogenic leukemia lines with or without spliceosomal hotspot mutations; type: cell-based; details: isogenic K562, TF-1, NALM-6
Procedure: (§2) (FIG. 4A) Sulfonamides bridge RBM39 to the CUL4-DDB1-DDA1-DCAF15 E3 ubiquitin ligase complex, leading to polyubiquitination and proteasomal degradation of RBM39. IC50 curves of the sulfonamide E7820 in isogenic (FIG. 4B) K562 and (FIG. 4C) NALM6 WT or mutant for SF3B1. (FIG. 4D) Western blots of RBM39 levels+[…] of the sulfonamides Indusulam or E7820 from the cells in (FIG. 4C).
(§3) FIGS. 5A-D illustrate the preferential response of spliceosomal mutant hematopoietic cells to indisulam. (FIG. 5A) IC50 plots of isogenic K562 (left) and NALM-6 (right) cells to indisulam. These are cell with introduction of a spliceosomal gene mutation into the endogenous locus. (FIG. 5B) Western blots of RBM39 in the K562 cells from (FIG. 5A) at increasing doses of indisulam. (FIG. 5C) Log10 IC50 waterfall plots of response of AML cell lines with naturally occurring mutations in splicing factors to indisulam. Red bars represent cells with naturally occurring mutations in splicing factors. (FIG. 5D) Bar plot of number of differential splicing events across parental, SF3B1^K700E/WT, and SRSF2^P95H/WT K562 cells. The numbers above each bar indicate number of differentially spliced events.
as §1

[3] = tested on: Srsf2^P95H/WT MLL-AF9 AML cells; assay: In vitro viability (MTS) of isogenic murine MLL-AF9 AML cells, Srsf2 WT vs Srsf2 mutant; type: cell-based
Text: FIGS. 1A-E illustrate the effects of PRMT inhibition on splicing. (FIG. 1A) Diagram of the role of PRMT5 and the type I PRMTs in splicing regulation. PRMTs methylate arginines on splicing proteins to promote spliceosome assembly and are required for proper splicing function. IC50 curves of spliceosomal mutant acute myeloid leukemia cells or their WT counterparts exposed to (FIG. 1B) the PRMT5 inhibitor GSK591 or (FIG. 1C) the PRMT1 inhibitor MS-023. Western blots of (FIG. 1D) symmetric dimethyl arginine (SDMA) or (FIG. 1E) asymmetric dimethyl arginine (ADMA) from the cells in (FIG. 1B) and […] respectively.
FIG. 2 illustrates drug sensitivity of AML cells with SMMs or partial loss of PRMT5 to inhibitors of splicing, PRMTs, or LSD1. MLL-AF9 Srsf2^WT/WT; MLL-AF9 Srsf2^P95H/WT or MLL-AF9 Prmt5^+/− cells were treated for 7 days with the indicated compounds in 384 wells (5 increasing concentrations per compound). Viability at day 7 was scored by MTS assay and reported as the ratio over control treated cells (with equivalent dilution of DMSO). The experiment was conducted in biological triplicate, and each individual run was repeated in technical triplicate. […]
Of note, the SF3B1 inhibitor, E7107, was used in the same assays as a positive control. […] Viability at day 7 was scored by MTS assay and reported as the ratio over control treated cells (with equivalent dilution of DMSO). […]

RBM39 = molecular target: T1, RBM39 (Homo sapiens, UniProt Q14498+Q66K64); assay: RBM39 protein levels (Western blot) in isogenic leukemia cell lines; type: cell-based
T1 construct: endogenous in cells; host or cells: isogenic K562 / NALM-6 (and TF-1) leukemia cells, wild type or with knock-in of spliceosomal gene mutations
Procedure: as §2, §3
The effects of indisulam and the sulfonamide analogue, E7820, were first examined across a panel of 18 genetically diverse AML cell lines. […]

parental K562 cells = assay: IC50 in parental K562 cells; type: cell-based; details: Homo sapiens
[4] = tested on: K562 cells (parental, SF3B1^K700E, SRSF2^P95H); assay: RNA-sequencing of parental K562 and isogenic SF3B1^K700E and SRSF2^P95H lines, differential splicing; type: cell-based; details: for Splicing changes relative to DMSO treatment: at the IC50 of each drug in parental K562 cells, regardless of mutation status
Text: as §3
Identification and Quantification of Differential Splicing
Isoform ratios for all alternative splicing events were quantified using MISO v2.0. Constitutively spliced exons and introns were quantified using junction-spanning reads. The conditional knockin and knockout mice were compared in a pair-wise manner, and for each pair the analysis was restricted to splicing events with 20 or more reads supporting either or both isoforms, and where the event was alternatively spliced in the sample pair. […] The human AML samples were analyzed by calculating the median isoform ratios across all 28 SRSF2 wildtype samples, and comparing that in a pair-wise manner to each SRSF2 mutant sample, using the same methodology as for the knockin and knockout mice. The Mx1-Cre^+Srsf2^+/+ or Mx1-Cre^+Srsf2^P95H/+E7107-treated mice were compared in a pair-wise manner against the median isoform ratios of their vehicle-treated counterparts, using the same methodology. For the MLL-AF9 AML transformed mice there were sufficient replicates to do a group-based comparison within the Srsf2P95H and wildtype genotypes individually (N=5 for each genotype-treatment combination). E7107- and vehicle-treated mice were compared in a two-sided Wilcoxon rank-sum test, using the total number of isoform reads within each treatment group.
In parallel, RNA-seq was carried out of the same cell lines treated with E7107, a small molecule that inhibits splicing through impeding binding of SF3B1 to the branch point [Finci et al., Genes & Dev. (2018) 32: 309-320].
Thus, both genetic as well pharmacologic degradation of RBM39 disrupts splicing as well as other pathways required for leukemogenicity.

[5] = tested on: SF3B1 as well as SRSF2-mutant AML and chronic myelomonocytic leukemia (CMML); details: Seiler et al., Nature Medicine (2018); cited from earlier work
spliceosomal-mutant AML = details: Lee et al. Nat Med (2016); cited from earlier work
[6] = tested on: spliceosomal-mutant leukemias; details: PDX, Lee et al. Nat Med (2016); cited from earlier work

NS(=O)(=O)c1ccc(S(=O)(=O)Nc2cccc3c(Cl)c[nH]c23)cc1 [indisulam]
Sensitivity (cell viability) of most cell lines [1]: sub-micromolar sensitivity | Preferential sensitivity of spliceosomal mutant cells to growth inhibition over wild-type [2]: preferential effects; also recorded: preferentially sensitive

O=C(NC[C@H](O)CN1CCc2ccccc2C1)c1ccnc(NC2CCC2)c1 [GSK591]
Sensitivity of Srsf2-mutant cells versus wildtype [3]: more sensitive

CC(C)Oc1ccc(-c2c[nH]cc2CN(C)CCN)cc1 [MS-023]
Sensitivity of Srsf2-mutant cells versus wildtype [3]: more sensitive

Cc1ccc(NS(=O)(=O)c2cccc(C#N)c2)c2[nH]cc(C#N)c12 [E7820]
Sensitivity (cell viability) of most cell lines [1]: sub-micromolar sensitivity | Preferential sensitivity of spliceosomal mutant cells to growth inhibition over wild-type [2]: preferentially sensitive | Degradation of RBM39 (RBM39): dose-dependent degradation of RBM39 | IC50 (parental K562 cells): 1000 nM | Differential splicing events in SF3B1^K700E cells versus SF3B1 wild-type ([4]; 1 μM E7820): greater number of differential splicing events | Splicing of SUPT6H, hnRNPH and SRSF10 mRNAs ([4]; E7820 exposure): intron retention that was most pronounced in spliceosomal mutant cells | Splicing changes relative to DMSO treatment [4]: increased cassette exon skipping and intron retention | Changes in splicing, E7820 versus E7107 ([4]; equipotent non-toxic doses, within each cell type and splicing category): greater changes in splicing

H3B-8800
Preferential effects in spliceosomal-mutant disease [5]: preferential effects | Splicing fidelity [5]: dose-dependent reductions in splicing fidelity

CC[C@H](O)[C@@H](C)[C@H]1O[C@@H]1C[C@@](C)(O)/C=C/C=C(\C)[C@H]1OC(=O)C[C@H](O)CC[C@@](C)(O)[C@@H](OC(=O)N2CCN(C3CCCCCC3)CC2)/C=C/[C@@H]1C [E7107]
Splicing changes relative to DMSO treatment [4]: increased cassette exon skipping and intron retention | Sensitivity of spliceosomal-mutant AML over isogenic WT in vivo (spliceosomal-mutant AML): differentially sensitive | Eradication of leukemia [6]: complete eradication could not be achieved | Human leukemic cell burden, mutant versus WT [6]: greater reduction in human leukemic cell burden
